Data published in ChEMBL document CHEMBL5136992, “Fascinating Transformation of SAM-Competitive Protein Methyltransferase Inhibitors from Nucleoside Analogues to Non-Nucleoside Analogues” (J Med Chem, 2022).

Key:
[1] = Microsomal stability in rat liver microsomes assessed as remaining compound after 1 hr incubation; type: ADME, Microsome; conditions: read-out: Stability
[2] = biological target: Protein arginine N-methyltransferase 5 (Homo sapiens, UniProt O14744); assay: Binding affinity to PRMT5 (unknown origin) assessed as inhibition constant
[3] = biological target: T1, Histone-lysine N-methyltransferase SMYD3 (Homo sapiens, UniProt Q9H7B4); assay: Inhibition of SMYD3 (unknown origin)
T1 sequence (Q9H7B4 whole entry): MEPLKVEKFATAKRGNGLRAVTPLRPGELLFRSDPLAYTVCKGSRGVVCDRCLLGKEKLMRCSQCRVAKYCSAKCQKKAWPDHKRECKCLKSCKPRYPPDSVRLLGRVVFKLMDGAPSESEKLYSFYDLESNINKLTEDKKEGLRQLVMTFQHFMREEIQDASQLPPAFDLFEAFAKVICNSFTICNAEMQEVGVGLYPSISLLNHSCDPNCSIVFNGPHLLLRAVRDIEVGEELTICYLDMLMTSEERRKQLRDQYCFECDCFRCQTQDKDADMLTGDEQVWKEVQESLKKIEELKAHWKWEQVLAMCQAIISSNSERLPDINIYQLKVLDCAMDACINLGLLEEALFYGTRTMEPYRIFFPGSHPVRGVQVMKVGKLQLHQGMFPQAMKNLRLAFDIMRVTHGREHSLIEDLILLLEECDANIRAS

[4] = biological target: T2, Protein arginine N-methyltransferase 7 (Homo sapiens, UniProt Q9NVM4); assay: Inhibition of PRMT7 (unknown origin)
T2 sequence (Q9NVM4 whole entry): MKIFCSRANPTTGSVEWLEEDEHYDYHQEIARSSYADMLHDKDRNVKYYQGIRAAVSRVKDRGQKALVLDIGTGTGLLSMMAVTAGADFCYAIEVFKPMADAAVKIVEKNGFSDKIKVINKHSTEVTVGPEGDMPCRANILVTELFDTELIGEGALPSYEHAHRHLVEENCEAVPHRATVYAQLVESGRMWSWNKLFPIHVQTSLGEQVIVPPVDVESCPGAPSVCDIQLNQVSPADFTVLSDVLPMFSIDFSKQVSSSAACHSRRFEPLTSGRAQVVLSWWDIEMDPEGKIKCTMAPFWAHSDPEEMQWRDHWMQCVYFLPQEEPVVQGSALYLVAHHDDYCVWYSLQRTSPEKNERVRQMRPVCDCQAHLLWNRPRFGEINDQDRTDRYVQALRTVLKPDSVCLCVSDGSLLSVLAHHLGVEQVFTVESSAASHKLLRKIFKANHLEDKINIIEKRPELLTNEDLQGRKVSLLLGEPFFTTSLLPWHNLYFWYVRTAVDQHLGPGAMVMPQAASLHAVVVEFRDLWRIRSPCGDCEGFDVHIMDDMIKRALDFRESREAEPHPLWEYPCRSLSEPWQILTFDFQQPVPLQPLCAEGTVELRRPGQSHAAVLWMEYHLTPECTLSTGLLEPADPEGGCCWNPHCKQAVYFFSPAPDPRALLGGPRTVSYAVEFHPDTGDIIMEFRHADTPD

Chain of Protein arginine N-methyltransferase 5 (O14744 whole entry): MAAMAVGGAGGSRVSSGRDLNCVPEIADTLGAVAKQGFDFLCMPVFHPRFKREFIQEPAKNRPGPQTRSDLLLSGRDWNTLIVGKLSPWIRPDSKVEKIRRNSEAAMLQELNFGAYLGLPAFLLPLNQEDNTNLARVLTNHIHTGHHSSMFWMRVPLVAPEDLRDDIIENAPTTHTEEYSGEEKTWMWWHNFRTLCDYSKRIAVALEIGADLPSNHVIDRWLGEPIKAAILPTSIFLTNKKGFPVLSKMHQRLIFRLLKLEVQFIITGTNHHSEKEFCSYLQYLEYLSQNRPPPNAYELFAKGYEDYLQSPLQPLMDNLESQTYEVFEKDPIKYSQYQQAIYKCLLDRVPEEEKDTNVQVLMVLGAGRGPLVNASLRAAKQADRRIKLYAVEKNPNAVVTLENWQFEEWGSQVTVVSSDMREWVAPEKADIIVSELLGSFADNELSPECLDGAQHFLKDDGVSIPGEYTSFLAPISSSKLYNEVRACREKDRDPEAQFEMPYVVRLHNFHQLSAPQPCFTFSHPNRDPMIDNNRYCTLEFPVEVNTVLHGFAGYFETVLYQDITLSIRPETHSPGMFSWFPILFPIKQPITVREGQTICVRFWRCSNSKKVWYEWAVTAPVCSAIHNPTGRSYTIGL

Which remaining at 1 h [1] does the source give for `COc1cccc(CCNC(=O)[C@H](CC[C@@H](CNCc2ccccc2)C[C@H]2O[C@@H](n3cnc4c(N)ncnc43)[C@H](O)[C@@H]2O)NC(=O)CC(C)(C)C2=C(C)C(=O)C(C)=C(C)C2=O)c1` here?
Its remaining at 1 h is 24%.

For `Nc1ncnc2c1ccn2[C@H]1O[C@@H]([C@H](O)c2ccc(Cl)c(F)c2)[C@H](O)[C@@H]1O`, which Ki [2] is on record?
Its Ki is 0.02 nM.

Which IC50 [3] does the source give for `CN(C)CCCN(CC[C@H](N)C(=O)O)C[C@@H]1O[C@H](n2cnc3c(N)ncnc32)[C@@H](O)[C@H]1O` here?
The IC50 was 130 nM.

Which IC50 [4] does the source give for `Nc1ncnc2c1ncn2[C@@H]1O[C@H](CSCCCCNCc2cccc(-c3ccc(Cl)cc3)c2)[C@@H](O)[C@H]1O` here?
The IC50 was under 2.5 nM.
